Source: article PMC11364775, “Ion occupancy of the selectivity filter controls opening of a cytoplasmic gate in the K2P channel TALK-2” (Nature Communications, 2024)

Key:
[1] = target: T1, WT TALK-2 channels (human K2P17.1) (Homo sapiens, UniProt Q96T54); assay: Inside-out patch-clamp, ligand activation of channel currents at +40 mV (oocytes); settings: 5 µM; TALK-2 WT
T1 sequence (Q96T54 1-332): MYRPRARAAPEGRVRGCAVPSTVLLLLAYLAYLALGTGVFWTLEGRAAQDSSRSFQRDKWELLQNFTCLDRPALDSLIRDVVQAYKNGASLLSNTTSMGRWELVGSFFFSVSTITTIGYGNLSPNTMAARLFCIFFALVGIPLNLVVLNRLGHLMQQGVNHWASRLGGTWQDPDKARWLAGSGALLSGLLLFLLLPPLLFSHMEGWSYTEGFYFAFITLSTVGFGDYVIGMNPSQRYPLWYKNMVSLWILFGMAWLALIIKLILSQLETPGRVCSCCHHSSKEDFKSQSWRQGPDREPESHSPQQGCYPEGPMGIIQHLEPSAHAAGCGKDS
Description: Oocytes were surgically removed from anesthetized adult females, treated with type II collagenase (Sigma-Aldrich/Merck, Germany) and manually defolliculated. 50 nl of a solution containing the K^+ channel specific cRNA was injected into Dumont stage V - VI oocytes and subsequently incubated at 17 °C in a solution containing (mM): 54 NaCl, 30 KCl, 2.4 NaHCO3, 0.82 MgSO4 x 7 H2O, 0.41 CaCl2, 0.33 Ca(NO3)2 x 4 H2O and 7.5 TRIS (pH 7.4 adjusted with NaOH/HCl) for 1–7 days before use. Electrophysiological recordings: Excised patch measurements in inside-out configuration under voltage-clamp conditions were performed at room temperature (22 – 24 °C). […] Intracellular bath solutions and compounds were applied to the cytoplasmic side of excised patches for the various K^+ channels via a gravity flow multi-barrel pipette system. Intracellular solution had the following composition (in mM): 120 KCl, 10 HEPES, 2 EGTA and 1 Pyrophosphate (pH adjusted with KOH/HCl). In other intracellular bath solutions, K^+ was replaced by Rb^+ (pH 7.4 adjusted with RbOH/HCl). Currents were recorded with an EPC10 amplifier (HEKA electronics, Germany) and sampled at 10 kHz or higher and filtered with 3 kHz (-3 dB) or higher as appropriate for sampling rate.
Recorded currents were analyzed from stable membrane patches at a voltage defined in the respective figure legend or with a voltage protocol as indicated in the respective figure. The fold activation (fold change in (tail) current amplitude) of a ligand (drug or bioactive lipid) was calculated from Eq. 1:1 Fold activationFA=Iactivated/Ibasal where Iactivated represents the stable current level in the presence of a given concentration of a respective ligand and Ibasal the measured current before ligand application. Percentage inhibition or residual currents upon blocker application for a ligand (drug or bioactive lipid) was calculated from stable currents of excised membrane patches using the following Eqs. 2 and 3:2 %inhibition=1−Iinhibited/Ibasal*100 3 Residual current=100−%inhibition where Iinhibited refers to the stable current level recorded in the presence of a given concentration of a drug or bioactive lipid and Ibasal to the measured current before ligand application. The macroscopic half-maximal concentration-inhibition relationship of a ligand was obtained using a Hill-fit for dose-response curves as depicted in Eq. 4:4 %inhibition/activation=Ibase+Imax−Ibase/1+x1/2/x^rate where base and max are the currents in the absence and presence of a respective ligand, x is the concentration of the ligand, x1/2 is the ligand concentration at which the activatory or inhibitory effect is half-maximal, rate is the Hill coefficient.

[2] = target: T2, WT TALK-2 channels (Homo sapiens, UniProt Q96T54); assay: Conductance-voltage (G-V) curves from tail currents, V1/2 (intracellular Rb+); type: cell-based; design: expressed in transfected cells; host or cells: Xenopus laevis oocytes (cRNA injection), excised inside-out patches; settings: for Normalized current: TALK-2 WT + 5 µM Oleoyl-CoA
T2 sequence (Q96T54 1-332): T1 sequence (Q96T54 1-332)
Description: The voltage-dependent activation mechanism of the SF gate in K2P channels allows to estimate the electrical work (ΔG = zFΔV1/2) required for pore opening by fitting the G–V curve to a Boltzmann equation. […] The open state represents the situation of both gates being simultaneously open but voltage can only exert force on the SF gate that functions as voltage sensor. […] We further tested whether mutations that open the lower gate (L262A and L264A) would affect the extracellular pH sensitivity. […] We further explored this concept of allosteric coupling using the mutations identified in the functional alanine screen of TM2 and TM4. […]
Conductance-voltage (G–V) relationships were determined from tail currents recorded at a holding potential (VH) of −80 mV after 300 ms depolarizing steps as indicated in the respective figure legend. Data were analyzed with a single Boltzmann fit following Eq. 6:6 GV=Imax/1+e^V−V1/2/slope+Ibase where V1/2 represents the voltage of half-maximal activation, s is the slope factor and Imax and Ibase represent the upper and lower asymptotes. Under appropriate experimental conditions, you can use slope to calculate the valence (charge) of the ion moving across the channel. Slope equals R * T/ z * F where R is the universal gas constant, T is temperature in K, F is the Faraday constant, and z is the valence.

`CCCCCCCC/C=C\CCCCCCCC(=O)SCCNC(=O)CCNC(=O)[C@H](O)C(C)(C)COP(=O)(O)OP(=O)(O)OC[C@H]1O[C@@H](n2cnc3c(N)ncnc32)[C@H](O)[C@@H]1OP(=O)(O)O` [oleoyl-CoA] was tested. Which “Fold activation 5 µM oleoyl-CoA” value [1] did it give?
Its value is 19.13 fold.

What about the “V1/2 shift (mV)” value ([2]; 5 µM Oleoyl-CoA, shift of G-V curve) of the same compound?
Its value is 26.7 mV.

What about the Normalized current ([2]; Voltage 0.000) of the same compound?
Its Normalized current is 0.186.

What about the Normalized current ([2]; Voltage 0.005) of the same compound?
Its Normalized current is 0.210.

What about the Normalized current ([2]; Voltage 0.010) of the same compound?
The Normalized current was 0.238.

And the Normalized current ([2]; Voltage 0.015)?
The Normalized current was 0.274.

What about the Normalized current ([2]; Voltage 0.020) of the same compound?
The Normalized current was 0.318.

What about the Normalized current ([2]; Voltage 0.025) of the same compound?
Its Normalized current is 0.366.

What about the Normalized current ([2]; Voltage 0.030) of the same compound?
The Normalized current was 0.416.

And the Normalized current ([2]; Voltage 0.035)?
The Normalized current was 0.467.

What about the Normalized current ([2]; Voltage 0.040) of the same compound?
Its Normalized current is 0.514.

And the Normalized current ([2]; Voltage 0.045)?
The Normalized current was 0.557.

What about the Normalized current ([2]; Voltage 0.050) of the same compound?
Its Normalized current is 0.597.

What about the Normalized current ([2]; Voltage 0.055) of the same compound?
Its Normalized current is 0.633.

What about the Normalized current ([2]; Voltage 0.060) of the same compound?
The Normalized current was 0.668.

What about the Normalized current ([2]; Voltage 0.065) of the same compound?
Its Normalized current is 0.699.

And the Normalized current ([2]; Voltage 0.070)?
The Normalized current was 0.727.

What about the Normalized current ([2]; Voltage 0.075) of the same compound?
Its Normalized current is 0.755.

And the Normalized current ([2]; Voltage 0.080)?
Its Normalized current is 0.778.

And the Normalized current ([2]; Voltage 0.085)?
Its Normalized current is 0.804.

And the Normalized current ([2]; Voltage 0.090)?
Its Normalized current is 0.822.

What about the Normalized current ([2]; Voltage 0.095) of the same compound?
The Normalized current was 0.844.

And the Normalized current ([2]; Voltage 0.100)?
The Normalized current was 0.861.

What about the Normalized current ([2]; Voltage 0.105) of the same compound?
Its Normalized current is 0.882.

And the Normalized current ([2]; Voltage 0.110)?
The Normalized current was 0.895.

What about the Normalized current ([2]; Voltage 0.115) of the same compound?
The Normalized current was 0.911.

And the Normalized current ([2]; Voltage 0.120)?
The Normalized current was 0.926.

And the Normalized current ([2]; Voltage 0.125)?
Its Normalized current is 0.934.

And the Normalized current ([2]; Voltage 0.130)?
Its Normalized current is 0.943.

And the Normalized current ([2]; Voltage 0.135)?
The Normalized current was 0.956.

What about the Normalized current ([2]; Voltage 0.140) of the same compound?
The Normalized current was 0.963.

And the Normalized current ([2]; Voltage 0.145)?
Its Normalized current is 0.968.

And the Normalized current ([2]; Voltage 0.150)?
The Normalized current was 0.977.

And the Normalized current ([2]; Voltage 0.155)?
The Normalized current was 0.979.

And the Normalized current ([2]; Voltage 0.160)?
Its Normalized current is 0.985.

And the Normalized current ([2]; Voltage -0.005)?
Its Normalized current is 0.170.

What about the Normalized current ([2]; Voltage -0.010) of the same compound?
The Normalized current was 0.157.

What about the Normalized current ([2]; Voltage -0.015) of the same compound?
The Normalized current was 0.148.

What about the Normalized current ([2]; Voltage -0.020) of the same compound?
The Normalized current was 0.137.

And the Normalized current ([2]; Voltage -0.025)?
Its Normalized current is 0.129.

What about the Normalized current ([2]; Voltage -0.030) of the same compound?
The Normalized current was 0.123.

What about the Normalized current ([2]; Voltage -0.035) of the same compound?
Its Normalized current is 0.120.

What about the Normalized current ([2]; Voltage -0.040) of the same compound?
Its Normalized current is 0.115.

What about the Normalized current ([2]; Voltage -0.045) of the same compound?
The Normalized current was 0.109.

What about the Normalized current ([2]; Voltage -0.050) of the same compound?
Its Normalized current is 0.104.

What about the Normalized current ([2]; Voltage -0.055) of the same compound?
Its Normalized current is 0.102.

What about the Normalized current ([2]; Voltage -0.060) of the same compound?
Its Normalized current is 0.097.

What about the Normalized current ([2]; Voltage -0.065) of the same compound?
Its Normalized current is 0.093.

And the Normalized current ([2]; Voltage -0.070)?
Its Normalized current is 0.092.

What about the Normalized current ([2]; Voltage -0.075) of the same compound?
The Normalized current was 0.089.

What about the Normalized current ([2]; Voltage -0.080) of the same compound?
Its Normalized current is 0.088.

What about the Normalized current ([2]; Voltage -0.085) of the same compound?
The Normalized current was 0.088.

What about the Normalized current ([2]; Voltage -0.090) of the same compound?
The Normalized current was 0.087.

What about the Normalized current ([2]; Voltage -0.095) of the same compound?
The Normalized current was 0.087.

And the Normalized current ([2]; Voltage -0.100)?
Its Normalized current is 0.087.

What about the Normalized current ([2]; Voltage -0.105) of the same compound?
The Normalized current was 0.086.

What about the Normalized current ([2]; Voltage -0.110) of the same compound?
The Normalized current was 0.086.

And the Normalized current ([2]; Voltage -0.115)?
The Normalized current was 0.086.

And the Normalized current ([2]; Voltage -0.120)?
Its Normalized current is 0.086.

And the V1/2 ([2]; TALK-2 WT, 5 µM ligand)?
Its V1/2 is 44.9 mV.
